Active and inactive are the calls of the source. No cut-off for these calls is given here.
Experiments:
[1] = target: T1, Histone deacetylase 8 (Mus musculus) (UniProt Q8VH37); test: Inhibition of HDAC8 in C57BL/6 mouse embryonic fibroblasts assessed as induction of histone H3 hyperacetylation in promoter region of Lhx1 at 100 nM after 24 hrs by ChIP analysis
T1 sequence (whole entry): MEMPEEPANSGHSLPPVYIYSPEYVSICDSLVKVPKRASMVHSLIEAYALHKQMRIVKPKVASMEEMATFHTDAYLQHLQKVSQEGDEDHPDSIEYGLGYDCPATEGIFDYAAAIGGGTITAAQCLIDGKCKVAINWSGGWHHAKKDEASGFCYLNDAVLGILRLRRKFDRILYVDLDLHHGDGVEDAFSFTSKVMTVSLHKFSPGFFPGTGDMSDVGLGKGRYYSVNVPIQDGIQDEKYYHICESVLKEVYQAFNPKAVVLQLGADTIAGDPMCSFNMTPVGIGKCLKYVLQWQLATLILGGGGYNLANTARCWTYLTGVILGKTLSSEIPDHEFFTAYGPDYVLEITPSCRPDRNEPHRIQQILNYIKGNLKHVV

[2] = target: Histone deacetylase 1 (Homo sapiens, UniProt Q13547); test: Inhibition of HDAC1 (unknown origin) after 30 mins by fluorometric analysis
Histone deacetylase 1, sequence (Q13547 whole entry): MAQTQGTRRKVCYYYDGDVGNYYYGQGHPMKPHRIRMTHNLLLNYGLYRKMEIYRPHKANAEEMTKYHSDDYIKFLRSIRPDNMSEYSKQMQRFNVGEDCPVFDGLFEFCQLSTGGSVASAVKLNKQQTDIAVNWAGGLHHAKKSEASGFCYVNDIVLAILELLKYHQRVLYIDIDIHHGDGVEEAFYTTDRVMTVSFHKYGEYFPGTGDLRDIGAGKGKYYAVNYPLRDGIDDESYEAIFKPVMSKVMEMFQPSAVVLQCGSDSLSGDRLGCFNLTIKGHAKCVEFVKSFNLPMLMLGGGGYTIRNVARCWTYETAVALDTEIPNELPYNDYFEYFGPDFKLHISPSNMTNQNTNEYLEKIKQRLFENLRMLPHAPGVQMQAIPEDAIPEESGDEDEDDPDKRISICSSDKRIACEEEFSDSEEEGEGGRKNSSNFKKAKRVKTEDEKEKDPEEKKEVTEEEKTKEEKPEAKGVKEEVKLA

[3] = target: T1, Histone deacetylase 8 (Mus musculus); test: Inhibition of HDAC8 in C57BL/6 mouse embryonic fibroblasts assessed as induction of histone H3 hyperacetylation in promoter region of Nanog at 100 nM after 24 hrs by ChIP analysis
[4] = target: T1, Histone deacetylase 8 (Mus musculus); test: Inhibition of HDAC8 in C57BL/6 mouse embryonic fibroblasts assessed as upregulation of Sox2 expression at 100 nM after 24 hrs by qPCR analysis relative to control
[5] = target: T1, Histone deacetylase 8 (Mus musculus); test: Inhibition of HDAC8 in C57BL/6 mouse embryonic fibroblasts assessed as induction of histone H3 hyperacetylation in promoter region of Otx2 at 100 nM after 24 hrs by ChIP analysis
[6] = target: T1, Histone deacetylase 8 (Mus musculus); test: Inhibition of HDAC8 in C57BL/6 mouse embryonic fibroblasts assessed as upregulation of Nanog expression at 100 nM after 24 hrs by qPCR analysis relative to control
[7] = target: T1, Histone deacetylase 8 (Mus musculus); test: Inhibition of HDAC8 in C57BL/6 mouse embryonic fibroblasts assessed as induction of histone H3 hyperacetylation in promoter region of Cdh1 at 100 nM after 24 hrs by ChIP analysis
[8] = target: Histone deacetylase 2 (Homo sapiens, UniProt Q92769); test: Inhibition of HDAC2 (unknown origin) after 30 mins by fluorometric analysis
Histone deacetylase 2, sequence (Q92769 whole entry): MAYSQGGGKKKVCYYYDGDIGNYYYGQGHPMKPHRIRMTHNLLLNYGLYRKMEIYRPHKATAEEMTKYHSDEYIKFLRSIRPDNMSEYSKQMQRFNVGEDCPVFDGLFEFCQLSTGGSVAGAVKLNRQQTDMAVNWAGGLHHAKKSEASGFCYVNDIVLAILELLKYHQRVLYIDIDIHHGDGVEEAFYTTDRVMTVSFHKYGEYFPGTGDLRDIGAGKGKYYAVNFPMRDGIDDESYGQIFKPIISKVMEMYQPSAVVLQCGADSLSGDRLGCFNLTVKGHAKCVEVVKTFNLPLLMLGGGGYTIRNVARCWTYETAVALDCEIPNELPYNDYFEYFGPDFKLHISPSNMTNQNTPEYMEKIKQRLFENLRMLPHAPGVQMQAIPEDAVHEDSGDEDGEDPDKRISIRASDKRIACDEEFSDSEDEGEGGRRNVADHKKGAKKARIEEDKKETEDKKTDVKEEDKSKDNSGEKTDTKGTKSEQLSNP

[9] = target: T1, Histone deacetylase 8 (Mus musculus); test: Inhibition of HDAC8 in C57BL/6 mouse embryonic fibroblasts assessed as induction of histone H3 hyperacetylation in promoter region of Oct3/4 at 100 nM after 24 hrs by ChIP analysis
[10] = target: T2, Histone deacetylase 8 (Homo sapiens) (UniProt Q9BY41); test: Ratio of trichostatin A IC50 to compound IC50 for HDAC8 (unknown origin)
T2 sequence (whole entry): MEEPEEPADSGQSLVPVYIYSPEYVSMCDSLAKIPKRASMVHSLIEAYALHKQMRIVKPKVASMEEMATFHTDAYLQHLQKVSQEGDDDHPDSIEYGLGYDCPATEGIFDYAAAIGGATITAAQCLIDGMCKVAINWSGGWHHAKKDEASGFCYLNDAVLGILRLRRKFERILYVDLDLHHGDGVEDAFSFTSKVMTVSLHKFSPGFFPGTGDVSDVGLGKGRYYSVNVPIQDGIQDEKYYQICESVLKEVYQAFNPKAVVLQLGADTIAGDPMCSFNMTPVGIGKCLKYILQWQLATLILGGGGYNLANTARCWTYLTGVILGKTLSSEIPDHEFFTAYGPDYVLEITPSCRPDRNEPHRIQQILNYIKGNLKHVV

[11] = target: T3, Histone deacetylase 8 (Homo sapiens, UniProt Q9BY41); test: Inhibition of HDAC8 (unknown origin) after 30 mins by fluorometric analysis
T3 sequence (Q9BY41 whole entry): T2 sequence (whole entry)

[12] = target: T1, Histone deacetylase 8 (Mus musculus); test: Inhibition of HDAC8 in C57BL/6 mouse embryonic fibroblasts assessed as upregulation of Cdh1 expression at 100 nM after 24 hrs by qPCR analysis relative to control
[13] = target: T1, Histone deacetylase 8 (Mus musculus); test: Inhibition of HDAC8 in C57BL/6 mouse embryonic fibroblasts assessed as upregulation of Dppa4 expression at 100 nM after 24 hrs by qPCR analysis relative to control
[14] = target: T1, Histone deacetylase 8 (Mus musculus); test: Inhibition of HDAC8 in C57BL/6 mouse embryonic fibroblasts assessed as upregulation of Otx2 expression at 100 nM after 24 hrs by qPCR analysis relative to control
[15] = target: T1, Histone deacetylase 8 (Mus musculus); test: Inhibition of HDAC8 in C57BL/6 mouse embryonic fibroblasts assessed as induction of histone H3 hyperacetylation in promoter region of Rex1 at 100 nM after 24 hrs by ChIP analysis
[16] = target: T1, Histone deacetylase 8 (Mus musculus); test: Inhibition of HDAC8 in C57BL/6 mouse embryonic fibroblasts assessed as upregulation of Oct3/4 expression at 100 nM after 24 hrs by qPCR analysis relative to control
[17] = target: T1, Histone deacetylase 8 (Mus musculus); test: Inhibition of HDAC8 in C57BL/6 mouse embryonic fibroblasts assessed as upregulation of Rex1 expression at 100 nM after 24 hrs by qPCR analysis relative to control
[18] = test system: MEF; test: Upregulation of Klf4 expression in C57BL/6 mouse embryonic fibroblasts at 100 nM after 24 hrs by qPCR analysis; type: functional, cell-based
[19] = test system: MEF; test: Upregulation of c-Myc expression in C57BL/6 mouse embryonic fibroblasts at 100 nM after 24 hrs by qPCR analysis; type: functional, cell-based
[20] = test system: MEF; test: Cytotoxicity against C57BL/6 mouse embryonic fibroblasts assessed as cell viability at 10 uM after 24 hrs by WST-8 assay; type: cell-based
[21] = target: T1, Histone deacetylase 8 (Mus musculus); test: Inhibition of HDAC8 in C57BL/6 mouse embryonic fibroblasts assessed as upregulation of Lhx1 expression at 100 nM after 24 hrs by qPCR analysis relative to control

| Structure (SMILES) | inhibition [1] | IC50 [2] [nM] | inhibition [3] | fold change (FC) [4] | inhibition [5] | fold change (FC) [6] | inhibition [7] | IC50 [8] [nM] | inhibition [9] | IC50 [11] [nM] | fold change (FC) [12] | fold change (FC) [13] | fold change (FC) [14] | inhibition [15] | fold change (FC) [16] | fold change (FC) [17] | Activity [18] | Activity [19] | Activity [20] | further results |
| --- | --- | --- | --- | --- | --- | --- | --- | --- | --- | --- | --- | --- | --- | --- | --- | --- | --- | --- | --- | --- |
| CN(C)CCCNC(=O)c1cc(NC(=O)c2cc(NC(=O)c3cc(NC(=O)c4nc(NC(=O)CCCNC(=O)c5cc(NC(=O)c6cc(NC(=O)c7cc(NC(=O)c8nc(NC(=O)CCNC(=O)CCNC(=O)CCCCCCC(=O)NO)cn8C)cn7C)cn6C)cn5C)cn4C)cn3C)cn2C)cn1C | Active | 490 | Active | 6 | Active | 16 | Active | 1120 | Active | 130 | 25 | 2 | 74 | Active | 20 | 60 | inactive | inactive | Non-toxic | Ratio IC50 [10]: 10; fold change (FC) [21]: 2.6 |
| CN(C)CCCNC(=O)c1cc(NC(=O)c2cc(NC(=O)c3cc(NC(=O)c4nc(NC(=O)CCCNC(=O)c5cc(NC(=O)c6cc(NC(=O)c7cc(NC(=O)c8nc(NC(=O)CCNC(=O)CCNC(=O)c9ccc(NC(=O)CCCCCCC(=O)NO)cc9)cn8C)cn7C)cn6C)cn5C)cn4C)cn3C)cn2C)cn1C | inactive | 370 | Active | 6 | Active | 20 | Active | 770 | Active | 820 | 25 | 2 | 40 | Active | 20 | 60 | inactive | inactive | Non-toxic | inhibition [21]: inactive |
